As usually defined, the pIC50 is the negative decadic logarithm of the IC50, by convention in mol/L. A high value points to a small IC50.

pIC50: −log10 of the molar value.

The target in the first test is Integrin alpha-IIb/beta-3 (Homo sapiens, UniProt P05106+P08514). The test is described as follows: Inhibition of fibrinogen binding to glycoprotein alpha IIb beta-3 integrin of activated platelets.
Chain of Integrin alpha-IIb/beta-3 (P05106 27-788 limits assumed): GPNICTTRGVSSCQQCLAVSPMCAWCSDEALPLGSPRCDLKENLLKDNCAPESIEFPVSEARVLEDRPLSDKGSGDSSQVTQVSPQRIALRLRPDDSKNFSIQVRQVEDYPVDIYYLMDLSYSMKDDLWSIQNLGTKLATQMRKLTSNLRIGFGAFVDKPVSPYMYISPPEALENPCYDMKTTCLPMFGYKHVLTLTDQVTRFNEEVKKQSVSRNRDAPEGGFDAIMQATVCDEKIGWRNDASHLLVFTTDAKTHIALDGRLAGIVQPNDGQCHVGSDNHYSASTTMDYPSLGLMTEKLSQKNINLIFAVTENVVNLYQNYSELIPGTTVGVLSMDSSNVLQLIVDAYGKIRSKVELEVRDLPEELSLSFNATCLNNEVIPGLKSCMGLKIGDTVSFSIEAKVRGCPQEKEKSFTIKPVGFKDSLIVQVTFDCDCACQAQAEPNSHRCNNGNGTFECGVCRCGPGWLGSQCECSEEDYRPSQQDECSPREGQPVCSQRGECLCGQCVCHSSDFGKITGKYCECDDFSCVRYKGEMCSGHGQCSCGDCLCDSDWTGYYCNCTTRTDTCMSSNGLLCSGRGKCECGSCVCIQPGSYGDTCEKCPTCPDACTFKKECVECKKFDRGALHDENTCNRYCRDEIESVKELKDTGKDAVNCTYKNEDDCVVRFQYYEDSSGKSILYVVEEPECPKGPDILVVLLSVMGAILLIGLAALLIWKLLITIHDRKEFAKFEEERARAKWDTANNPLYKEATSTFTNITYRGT
Chain of Integrin alpha-IIb/beta-3 (P08514 32-887 limits assumed): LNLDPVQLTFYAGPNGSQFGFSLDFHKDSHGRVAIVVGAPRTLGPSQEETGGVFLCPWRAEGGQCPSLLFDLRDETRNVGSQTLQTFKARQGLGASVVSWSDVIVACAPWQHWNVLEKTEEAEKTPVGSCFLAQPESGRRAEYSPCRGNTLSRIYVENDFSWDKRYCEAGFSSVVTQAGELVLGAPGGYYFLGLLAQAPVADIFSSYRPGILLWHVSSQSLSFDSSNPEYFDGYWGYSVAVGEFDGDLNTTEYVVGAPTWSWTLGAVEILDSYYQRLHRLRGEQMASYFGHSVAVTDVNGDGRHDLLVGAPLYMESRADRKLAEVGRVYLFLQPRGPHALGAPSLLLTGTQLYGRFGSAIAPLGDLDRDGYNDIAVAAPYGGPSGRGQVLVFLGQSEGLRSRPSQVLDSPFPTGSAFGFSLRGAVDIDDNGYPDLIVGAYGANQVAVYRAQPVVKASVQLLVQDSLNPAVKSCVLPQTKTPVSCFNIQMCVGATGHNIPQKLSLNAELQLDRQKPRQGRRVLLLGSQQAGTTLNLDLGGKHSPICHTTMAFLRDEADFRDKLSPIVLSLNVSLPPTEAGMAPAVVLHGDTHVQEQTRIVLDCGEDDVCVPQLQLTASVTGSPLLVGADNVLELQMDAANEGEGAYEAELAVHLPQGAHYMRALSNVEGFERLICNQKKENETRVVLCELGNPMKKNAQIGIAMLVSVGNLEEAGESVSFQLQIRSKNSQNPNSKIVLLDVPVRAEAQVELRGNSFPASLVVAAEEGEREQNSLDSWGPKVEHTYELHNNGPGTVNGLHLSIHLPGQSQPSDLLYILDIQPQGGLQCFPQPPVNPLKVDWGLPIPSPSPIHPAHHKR
Chain of Integrin alpha-IIb/beta-3 (P08514 891-1039 limits assumed): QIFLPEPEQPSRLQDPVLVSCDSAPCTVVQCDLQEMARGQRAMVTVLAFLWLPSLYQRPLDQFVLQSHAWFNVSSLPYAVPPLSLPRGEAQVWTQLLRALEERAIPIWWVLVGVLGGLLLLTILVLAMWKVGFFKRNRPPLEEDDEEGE
Compound `Cc1c(C(=O)NCCC(=O)O)cn2c1C(=O)N(CCC1CCNCC1)CCC2` gave a pIC50 of 6.29.

Compound `O=C(O)CCNC(=O)c1cc2n(n1)CCN(CCCC1CCNCC1)C2=O` showed a pIC50 of 5.89.

Turning to `O=C(O)CCN1CCn2nc(C(=O)NCCC3CCNCC3)cc2C1=O`, the pIC50 was 4.51. Against the preceding compound, the pIC50 is 1.38 log units lower.

For the compound `O=C(O)CNC(=O)c1cc2n(n1)CCN(CCCC1CCNCC1)C2=O`, the negative-log IC50 (pIC50) was 4.85.

The compound `O=C(O)CCNC(=O)c1cn2c(c1-c1ccccc1)C(=O)N(CCC1CCNCC1)CCC2` gave a negative logarithm of the IC50 (pIC50) below 3.52.

For the compound `O=C(O)CCNC(=O)c1cc2n(c1)CCN(CCC1CCNCC1)C2=O`, the pIC50 was 7.10.

In the case of `O=C(O)CCCNC(=O)c1cc2n(n1)CCN(CC1CCNCC1)C2=O`, the negative-log IC50 (pIC50) was 4.82.

For the compound `O=C(O)CCNC(=O)c1cc2n(c1)CCCN(CCC1CCNCC1)C2=O`, the pIC50 is 6.77.

Regarding `Cc1c(C(=O)NCCC(=O)O)cn2c1C(=O)N(CCC1CCNCC1)CC2`, the pIC50 is 6.77.

For `O=C(O)CCNC(=O)c1cc2n(n1)CCN(CCC1CCNCC1)C2=O`, the negative logarithm of the IC50 (pIC50) is 6.60.

For `O=C(O)CCNC(=O)c1cc2n(n1)CCN(CC1CCNCC1)C2=O`, the negative-log IC50 (pIC50) was 4.35.

Another test concerns Endothelial cell. The test is described as follows: Inhibition of human umbilical vein endothelial cell adhesion to fibrinogen, vitronectin and fibronectin coated surfaces;NI means no inhibition at 300 uM. It is filed as functional, cell-based.
On to `O=C(O)CCNC(=O)c1cc2n(c1)CCN(CCC1CCNCC1)C2=O`, for which the inhibition result was “No inhibition”.

The values are drawn from ChEMBL document CHEMBL1128650, “Non-peptide glycoprotein IIb/IIIa inhibitors. 6. Design and synthesis of rigid, centrally constrained non-peptide fibrinogen receptor antagonists” (Bioorg Med Chem Lett, 1995).
